Data reported in ChEMBL document CHEMBL1140679, “The identification of potent, selective, and bioavailable cathepsin S inhibitors” (Bioorg Med Chem Lett, 2007).

How the values were obtained:
[1] = Bioavailability in Sprague-Dawley rat; format: ADME, organism-based; conditions: in vivo
[2] = molecular target: T1, Procathepsin L (Mus musculus, UniProt P06797); experiment: Inhibition of mouse recombinant cathepsin L
T1 sequence (P06797 whole entry): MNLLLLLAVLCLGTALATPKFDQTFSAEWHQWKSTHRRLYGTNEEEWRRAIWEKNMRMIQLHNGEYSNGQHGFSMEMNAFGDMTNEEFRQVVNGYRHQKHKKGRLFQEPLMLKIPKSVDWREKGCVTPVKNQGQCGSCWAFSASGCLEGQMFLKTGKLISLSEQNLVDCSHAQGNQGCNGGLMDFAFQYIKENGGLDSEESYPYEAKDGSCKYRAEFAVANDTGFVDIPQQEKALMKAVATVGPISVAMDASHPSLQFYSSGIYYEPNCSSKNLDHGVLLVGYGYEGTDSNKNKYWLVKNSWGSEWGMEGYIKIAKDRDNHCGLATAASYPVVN

[3] = molecular target: T2, Procathepsin L (Rattus norvegicus, UniProt P07154); experiment: Inhibition of rat liver lysosomal cathepsin L
T2 sequence (P07154 whole entry): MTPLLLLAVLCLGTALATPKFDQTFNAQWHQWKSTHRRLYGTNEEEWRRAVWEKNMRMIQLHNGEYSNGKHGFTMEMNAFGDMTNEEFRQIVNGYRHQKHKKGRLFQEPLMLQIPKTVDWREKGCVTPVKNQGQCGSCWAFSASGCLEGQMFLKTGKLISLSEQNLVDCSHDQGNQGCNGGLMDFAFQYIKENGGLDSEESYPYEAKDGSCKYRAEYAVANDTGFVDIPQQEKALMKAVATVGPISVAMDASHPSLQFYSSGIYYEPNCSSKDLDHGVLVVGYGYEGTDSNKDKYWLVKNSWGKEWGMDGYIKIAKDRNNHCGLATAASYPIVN

[4] = molecular target: Cathepsin B (Rattus norvegicus, UniProt P00787); experiment: Inhibition of rat liver lysosomal cathepsin B
[5] = molecular target: Cathepsin B (Mus musculus, UniProt P10605); experiment: Inhibition of mouse recombinant cathepsin B
[6] = Cmax in Sprague-Dawley rat; format: ADME, organism-based; conditions: in vivo
[7] = test system: Hepatocyte; experiment: Metabolic stability in rat hepatocytes after 2 hrs; format: ADME, cell-based
[8] = molecular target: Cathepsin B (Homo sapiens, UniProt P07858); experiment: Inhibition of human cathepsin B
[9] = molecular target: T3, Cathepsin K (Homo sapiens, UniProt P43235); experiment: Inhibition of human cathepsin K
T3 sequence (P43235 whole entry): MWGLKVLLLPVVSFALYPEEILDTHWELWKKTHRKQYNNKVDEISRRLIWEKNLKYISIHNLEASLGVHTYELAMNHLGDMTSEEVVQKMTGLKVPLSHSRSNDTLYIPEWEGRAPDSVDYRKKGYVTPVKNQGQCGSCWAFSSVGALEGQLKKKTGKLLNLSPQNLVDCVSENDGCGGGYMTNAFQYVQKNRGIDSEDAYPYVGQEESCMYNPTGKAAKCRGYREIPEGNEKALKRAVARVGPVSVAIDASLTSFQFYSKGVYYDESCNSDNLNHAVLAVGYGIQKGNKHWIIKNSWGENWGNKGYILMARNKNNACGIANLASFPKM

[10] = molecular target: Cathepsin S (Rattus norvegicus, UniProt Q02765); experiment: Inhibition of rat spleen cathepsin S; format: tissue-based
[11] = molecular target: Cathepsin S (Homo sapiens, UniProt P25774); experiment: Inhibition of human cathepsin S
[12] = molecular target: Cathepsin S (Mus musculus, UniProt O70370); experiment: Inhibition of mouse recombinant cathepsin S
[13] = Inhibition of antigen presentation in mouse B cells; format: functional, cell-based
[14] = molecular target: Procathepsin L (Homo sapiens, UniProt P07711); experiment: Inhibition of human cathepsin L
[15] = test system: Mus musculus; experiment: AUC (0 to 24 hrs) in C57BL/6 mouse at 50 mg/kg, po; format: ADME, organism-based, Plasma; parameters: time < 24 hr, dose 50 mg/kg, route oral; conditions: in vivo
[16] = molecular target: T4, Cathepsin K (Mus musculus, UniProt P55097); experiment: Inhibition of mouse recombinant cathepsin K
T4 sequence (P55097 whole entry): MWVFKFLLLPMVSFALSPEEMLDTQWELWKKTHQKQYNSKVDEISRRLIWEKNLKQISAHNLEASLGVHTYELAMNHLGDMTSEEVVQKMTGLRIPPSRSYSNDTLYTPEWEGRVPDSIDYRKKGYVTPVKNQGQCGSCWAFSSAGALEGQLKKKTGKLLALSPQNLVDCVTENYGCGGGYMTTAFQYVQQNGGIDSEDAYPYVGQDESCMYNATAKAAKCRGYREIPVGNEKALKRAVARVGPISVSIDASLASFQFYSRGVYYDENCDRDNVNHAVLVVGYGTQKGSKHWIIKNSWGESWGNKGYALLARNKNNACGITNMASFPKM

[17] = test system: Mus musculus; experiment: AUC (0 to 24 hrs) in C57BL/6 mouse at 5 mg/kg, po; format: ADME, organism-based, Plasma; parameters: time < 24 hr, dose 5 mg/kg, route oral; conditions: in vivo
[18] = Half life in Sprague-Dawley rat; format: ADME, organism-based; conditions: in vivo
[19] = organism: Mus musculus; experiment: Drug level in C57BL/6 mouse blood at 0.05 w/w %; format: ADME, organism-based; conditions: in vivo, read-out: Drug uptake
[20] = test system: Mus musculus; experiment: Increase in p10 fragment accumulation in C57BL/6 mouse at 3 mg/kg/day for 5 days relative to control; format: functional
[21] = organism: Mus musculus; experiment: AUC (0 to 24 hrs) in C57BL/6 mouse assessed as (R)-N-(1-cyanocyclopropyl)-3-(methylsulfonyl)-2-((S)-2,2,2-trifluoro-1-(4-fluorophenyl)ethylamino)propanamide levels at 0.25 w/w % after 5 days; format: ADME, organism-based, Plasma; parameters: time < 24 hr; conditions: in vivo
[22] = organism: Mus musculus; experiment: Drug level in C57BL/6 mouse blood at 0.25 w/w %; format: ADME, organism-based; conditions: in vivo, read-out: Drug uptake
[23] = test system: Mus musculus; experiment: AUC (0 to 24 hrs) in C57BL/6 mouse assessed as (R)-N-(1-cyanocyclopropyl)-3-(methylsulfonyl)-2-((S)-2,2,2-trifluoro-1-(4-fluorophenyl)ethylamino)propanamide levels at 10 mg/kg, po; format: ADME, organism-based, Plasma; parameters: time < 24 hr, dose 10 mg/kg, route oral; conditions: in vivo
[24] = organism: Mus musculus; experiment: Drug level in C57BL/6 mouse blood at 0.01 w/w %; format: ADME, organism-based; conditions: in vivo, read-out: Drug uptake
[25] = test system: Mus musculus; experiment: AUC (0 to 24 hrs) in C57BL/6 mouse assessed as (R)-N-(1-cyanocyclopropyl)-3-(methylsulfonyl)-2-((S)-2,2,2-trifluoro-1-(4-fluorophenyl)ethylamino)propanamide levels at 50 mg/kg, po; format: ADME, organism-based, Plasma; parameters: time < 24 hr, dose 50 mg/kg, route oral; conditions: in vivo
[26] = organism: Mus musculus; experiment: AUC (0 to 24 hrs) in C57BL/6 mouse assessed as (R)-N-(1-cyanocyclopropyl)-3-(methylsulfonyl)-2-((S)-2,2,2-trifluoro-1-(4-fluorophenyl)ethylamino)propanamide levels at 0.05 w/w % after 5 days; format: ADME, organism-based, Plasma; parameters: time < 24 hr; conditions: in vivo
[27] = organism: Mus musculus; experiment: AUC (0 to 24 hrs) in C57BL/6 mouse assessed as (R)-N-(1-cyanocyclopropyl)-3-(methylsulfonyl)-2-((S)-2,2,2-trifluoro-1-(4-fluorophenyl)ethylamino)propanamide levels at 0.01 w/w % after 5 days; format: ADME, organism-based, Plasma; parameters: time < 24 hr; conditions: in vivo
[28] = test system: Mus musculus; experiment: AUC (0 to 24 hrs) in C57BL/6 mouse assessed as (R)-N-(1-cyanocyclopropyl)-3-(methylsulfonyl)-2-((S)-2,2,2-trifluoro-1-(4-fluorophenyl)ethylamino)propanamide levels at 150 mg/kg, po; format: ADME, organism-based, Plasma; parameters: time < 24 hr, dose 150 mg/kg, route oral; conditions: in vivo

Procathepsin L (Homo sapiens, UniProt P07711), sequence (P07711 whole entry): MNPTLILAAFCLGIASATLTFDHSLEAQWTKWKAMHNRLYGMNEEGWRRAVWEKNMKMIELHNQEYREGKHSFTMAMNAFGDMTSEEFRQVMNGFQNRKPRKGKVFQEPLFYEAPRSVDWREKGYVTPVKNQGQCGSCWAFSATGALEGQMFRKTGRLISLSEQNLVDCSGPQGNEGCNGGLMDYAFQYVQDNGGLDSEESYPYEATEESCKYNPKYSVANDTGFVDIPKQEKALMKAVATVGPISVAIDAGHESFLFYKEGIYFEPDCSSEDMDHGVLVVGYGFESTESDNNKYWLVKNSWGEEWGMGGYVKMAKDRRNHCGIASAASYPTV
Cathepsin S (Homo sapiens, UniProt P25774), sequence (P25774 whole entry): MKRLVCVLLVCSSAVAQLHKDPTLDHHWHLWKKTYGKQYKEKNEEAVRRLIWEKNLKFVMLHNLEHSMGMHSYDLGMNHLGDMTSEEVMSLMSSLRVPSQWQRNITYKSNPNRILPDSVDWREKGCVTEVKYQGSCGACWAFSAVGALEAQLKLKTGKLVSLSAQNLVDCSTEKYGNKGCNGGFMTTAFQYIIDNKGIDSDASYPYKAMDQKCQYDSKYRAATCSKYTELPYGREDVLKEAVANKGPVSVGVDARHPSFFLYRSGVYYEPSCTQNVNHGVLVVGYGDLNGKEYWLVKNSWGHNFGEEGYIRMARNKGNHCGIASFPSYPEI
Cathepsin B (Mus musculus, UniProt P10605), sequence (P10605 whole entry): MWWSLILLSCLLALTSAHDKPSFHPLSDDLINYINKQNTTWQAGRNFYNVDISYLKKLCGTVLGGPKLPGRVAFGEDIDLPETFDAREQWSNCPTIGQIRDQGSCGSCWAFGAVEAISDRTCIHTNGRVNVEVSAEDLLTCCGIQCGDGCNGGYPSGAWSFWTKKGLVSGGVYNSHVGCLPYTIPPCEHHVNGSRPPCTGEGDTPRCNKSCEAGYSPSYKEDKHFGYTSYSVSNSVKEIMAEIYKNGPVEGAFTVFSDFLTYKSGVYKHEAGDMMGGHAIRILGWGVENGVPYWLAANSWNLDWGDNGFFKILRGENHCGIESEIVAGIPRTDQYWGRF
Cathepsin S (Rattus norvegicus, UniProt Q02765), sequence (Q02765 whole entry): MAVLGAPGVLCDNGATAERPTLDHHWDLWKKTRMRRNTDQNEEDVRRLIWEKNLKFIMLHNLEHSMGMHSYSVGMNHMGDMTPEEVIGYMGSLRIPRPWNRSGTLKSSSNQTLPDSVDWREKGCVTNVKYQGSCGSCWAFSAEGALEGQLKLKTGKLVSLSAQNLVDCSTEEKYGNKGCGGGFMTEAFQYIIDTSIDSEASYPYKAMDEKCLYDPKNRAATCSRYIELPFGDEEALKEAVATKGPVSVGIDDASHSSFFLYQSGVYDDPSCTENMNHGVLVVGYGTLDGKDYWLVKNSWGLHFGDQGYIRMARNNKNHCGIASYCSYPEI
Cathepsin S (Mus musculus, UniProt O70370), sequence (O70370 whole entry): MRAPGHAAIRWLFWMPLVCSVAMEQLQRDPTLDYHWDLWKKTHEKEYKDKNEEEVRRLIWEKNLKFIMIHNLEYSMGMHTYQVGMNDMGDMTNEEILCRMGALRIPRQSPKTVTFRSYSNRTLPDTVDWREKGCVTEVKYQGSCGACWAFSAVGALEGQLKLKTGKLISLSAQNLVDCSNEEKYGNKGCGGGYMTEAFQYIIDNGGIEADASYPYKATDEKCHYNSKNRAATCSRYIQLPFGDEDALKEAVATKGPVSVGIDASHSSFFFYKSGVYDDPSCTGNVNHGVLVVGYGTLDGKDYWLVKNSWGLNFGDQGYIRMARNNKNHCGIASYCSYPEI
Cathepsin B (Rattus norvegicus, UniProt P00787), sequence (P00787 whole entry): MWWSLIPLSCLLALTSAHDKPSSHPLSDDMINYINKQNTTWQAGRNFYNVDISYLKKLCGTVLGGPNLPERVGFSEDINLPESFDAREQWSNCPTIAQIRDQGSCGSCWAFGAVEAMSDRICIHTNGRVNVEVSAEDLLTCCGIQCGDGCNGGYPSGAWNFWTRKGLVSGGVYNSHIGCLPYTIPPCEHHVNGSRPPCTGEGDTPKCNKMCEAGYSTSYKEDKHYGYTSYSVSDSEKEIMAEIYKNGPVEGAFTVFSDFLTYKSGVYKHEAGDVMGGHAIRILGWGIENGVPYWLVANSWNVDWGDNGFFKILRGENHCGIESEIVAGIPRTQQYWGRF

| SMILES | IC50 [2] | IC50 [3] | IC50 [4] | IC50 [5] | IC50 [8] | IC50 [9] | IC50 [10] | IC50 [11] | IC50 [12] | IC50 [14] | IC50 [16] | further results |
| --- | --- | --- | --- | --- | --- | --- | --- | --- | --- | --- | --- | --- |
| CS(=O)(=O)C[C@H](N[C@@H](c1ccc(F)cc1)C(F)(F)F)C(=O)NC1(C#N)CC1 | 3040 nM | 3160 nM | 319 nM | 233 nM | 1100 nM | 405 nM | 426 nM | 1.8 nM | 0.6 nM | 1010 nM | 1650 nM | bioavailability [1]: 48%; Cmax [6]: 6.3 µM; Stability [7]: Stable; IC50 [13]: 44 nM; AUC [15]: 111 µM; AUC [17]: 43 µM; half-life [18]: 5.2 h |
| C[S+]([O-])C[C@H](N[C@@H](c1ccc(F)cc1)C(F)(F)F)C(=O)NC1(C#N)CC1 (some centres undefined) | > 10000 nM | > 10000 nM | > 10000 nM | 6700 nM | 9720 nM | 1120 nM | > 10000 nM | 729 nM | 96 nM | > 10000 nM | 5840 nM | concentration [19]: 6 µM; Activity [20]: 24; AUC [21]: 87 µM; concentration [22]: 16 µM; AUC [23]: 63 µM; concentration [24]: 1 µM; AUC [25]: 274 µM; AUC [26]: 31 µM; AUC [27]: 7 µM; AUC [28]: 750 µM |
